{"source": "patent US20120269797A1", "about": "“METHOD FOR INHIBITING THE MATURATION OF DENDRITIC CELLS” (priority 2009, published 2012)", "key": {"[1]": {"tested_on": "murine DCs", "assay": "maturation of murine dendritic cells, surface molecules by FACS analysis", "format": "cell-based", "conditions": "different concentrations, Day 8 to Day 10, matured last 16 hours with LPS; FIG. 1", "protocol": "Murine DCs were incubated with different concentrations of the proteasome inhibitor Velcade® from Day 8 to Day 10, and were matured during the last 16 hours, in the presence of LPS. In order to determine the phenotypic DC maturation, in other words the increase in the expression level of specific cell surface molecules, the cells were subsequently characterized using monoclonal antibodies and FACS analysis. […] However, only completely matured DCs are able to induce potent immune responses. The control (mock) remained untreated."}, "[2]": {"tested_on": "human DCs", "conditions": "two concentrations added Day 5, matured two days with maturation cocktail; FIG. 2", "protocol": "Immature human DCs were mixed with two different concentrations of Velcade® on Day 5, and subsequently matured for another two days using the maturation cocktail. Subsequently, the expression of the surface molecules that are typical for the maturation of human DCs was analyzed. […] The control (mock) remained untreated."}, "[3]": {"tested_on": "murine DCs / allogeneic murine T cells", "assay": "DC-mediated T cell proliferation, allogeneic murine T cells with TNF-matured murine DCs", "format": "cell-based", "conditions": "72 hours, three different concentrations; FIG. 3", "protocol": "Allogeneic murine T cells were incubated with TNF-matured murine DCs for 72 hours, in the presence of three different concentrations of Velcade®."}, "[4]": {"tested_on": "human DCs", "assay": "DC-mediated T cell stimulation by MLR assay, human DCs", "format": "cell-based", "conditions": "DCs incubated during maturation; FIG. 4", "protocol": "The T cell stimulatory capacity of mature DCs can be tested in vitro by means of the so-called “mixed leukocyte reaction” (MLR) assay. […] Human DCs were incubated with Velcade® during maturation and subsequently, the DC-mediated T cell stimulation was investigated by means of MLR assay."}, "[5]": {"tested_on": "murine (DC:T) cell co-cultures", "assay": "cytokine and chemokine production in murine DC/T cell co-cultures", "format": "cell-based", "conditions": "72 hours, different concentrations; FIG. 5", "protocol": "The production of INFy and MCP-1 was determined from cell culture top fractions of murine (DC:T) cell co-cultures. For this purpose, DCs were incubated with allogeneic T cells, in the presence of different concentrations of Velcade®, for 72 hours. […] The control (mock) remained untreated."}, "[6]": {"tested_on": "human DC/T cell co-cultures", "assay": "cytokine production in human DC/T cell co-cultures (CBA technology)", "format": "cell-based", "protocol": "During DC-mediated T cell stimulation, the production of cytokines (among them IFN, IL-2, IL-6, TNF) takes place, which can be detected in the culture top fraction. […] Immature human […] were incubated with Velcade®, matured for 48 hours, and subsequently cultivated together with allogeneic human T cells for another 72 hours. Subsequently, cell culture top fractions were taken and the release of pro-inflammatory cytokines was analyzed by means of CBA technology. […] The control (mock) remained untreated."}, "[7]": {"tested_on": "mature DCs", "assay": "mixed leukocyte reaction (MLR) assay, T cell stimulatory capacity of mature DCs", "format": "cell-based", "conditions": "see FIGS. 3 and 4", "source_text": "The T cell stimulatory capacity of mature DCs can be tested in vitro by means of the so-called “mixed leukocyte reaction” (MLR) assay. […] This functional test therefore reflects the phenotypic effects of the PI treatment—namely the blockade of full maturation of the DCs—very well."}, "[8]": {"tested_on": "murine DCs generated ex vivo", "quoted_text": "In order to test the effect of PIs also in vivo, Velcade® was applied to mice in vivo, then bone marrow was isolated and the typical bone marrow DCs were generated from this.\nC57B1/6 mice were injected with 0.75 mg/kg Velcade® i.v. three times. The injection took place within five days, with an interval of one day, in each instance. An hour after the last injection, removal of the bone marrow from femur and tibia took place to generate the murine DCs. On Day 8 of cultivation, the cells were matured with LPS. On the subsequent day, the expression of the surface molecules was investigated by means of FACS analysis."}, "[9]": {"conditions": "0.75 mg/kg i.v. three times, FIG. 7b"}}}
{"smiles": "CC(C)C[C@H](NC(=O)[C@H](Cc1ccccc1)NC(=O)c1cnccn1)B(O)O", "note": "[Velcade®]", "values": [{"measurement": "surface expression of CD25, CD40, CD80, CD86 and CD83", "setting": "[1]", "result": "very clearly reduces"}, {"measurement": "expression of CD80, CCR7, CD25, MHC I and CD83", "setting": "[2]", "result": "clear reduction"}, {"measurement": "DC-mediated T cell proliferation", "setting": "[3]", "result": "reduces the DC-mediated T cell proliferation in a manner that is dependent on dose"}, {"measurement": "DC-mediated T cell stimulation (stimulatory capacity of DCs)", "setting": "[4]", "result": "clear reduction in their stimulatory capacity"}, {"measurement": "expression of INFy and MCP-1 in cell culture top fractions", "setting": "[5]", "result": "clearly reduced expression"}, {"measurement": "cytokine production (IFN, IL-2, IL-6, TNF) during DC-mediated T cell stimulation", "setting": "[6]; culture top fraction, summary of FIGS. 5 and 6 (murine and human)", "result": "able to block this cytokine production, as a function of concentration"}, {"measurement": "secretion of IL-2, IL-6, INFy and TNF", "setting": "[6]; matured 48 hours, co-culture with allogeneic T cells 72 hours, FIG. 6", "result": "clearly reduced secretion"}, {"measurement": "DC-mediated T cell stimulation", "setting": "[7]", "result": "able to block DC-mediated T cell stimulation"}, {"measurement": "surface expression of CD25, CD40, CD80 and CD86", "setting": "[8]; 0.75 mg/kg i.v. three times, DCs matured with LPS on Day 8, FIG. 7a", "result": "reduction in the surface expression"}, {"measurement": "expression of MHC Class II molecules", "setting": "[8]; [9]", "result": "also reduced"}, {"measurement": "percentage of MHC II highly expressing cells:MHC II interm. expressing cells", "setting": "[8]; [9]", "result": "shifted in favor of the MCH II interm. expressing cells"}, {"measurement": "population of the mature DCs (CD40, CD25, CD83 highly expressing)", "setting": "[8]; applied in vivo to mice, TNF-stimulated and LPS-stimulated DCs, FIG. 7", "result": "reduces the population of the mature DCs"}]}
